{"source": "patent US20230348442A1", "about": "“GALECTIN-3 INHIBITING 2-HYDROXYCYCLOALKANE-1-CARBAMOYL DERIVATIVES” (Idorsia Pharmaceuticals Ltd, priority 2020, published 2023)"}
{"target": "human Gal-3 (hGal-3) (Homo sapiens (Human), UniProt P17931)", "sequence (P17931 whole entry)": "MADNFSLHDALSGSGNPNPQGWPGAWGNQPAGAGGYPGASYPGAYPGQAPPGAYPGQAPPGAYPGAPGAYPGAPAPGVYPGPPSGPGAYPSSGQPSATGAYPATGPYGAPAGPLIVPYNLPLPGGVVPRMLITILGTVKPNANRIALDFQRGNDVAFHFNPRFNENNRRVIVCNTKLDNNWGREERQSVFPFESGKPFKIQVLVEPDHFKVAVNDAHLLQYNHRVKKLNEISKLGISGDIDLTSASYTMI", "assay": "competitive binding assay: binding of biotinylated hGal-3 to microplate-adsorbed asialofetuin (ASF), spectrophotometric", "details": "Activity on hGal-3; mean values of several measurements", "in_short": "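Spectrophotometric readout (streptavidin-peroxidase, ABTS) of biotinylated galectin retained on ASF-coated wells. Biotinylated hGal-1 or hGal-3, 300-1000 ng/mL, co-incubated with test compound 3 h at 4° C, then washed. Mean IC50 from repeat runs.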", "units": {"IC50": "nM"}}
{"smiles": "CO[C@@H]1[C@@H](n2cc(-c3cc(F)c(F)c(F)c3)nn2)[C@@H](O)[C@@H](CO)O[C@H]1C(=O)N(c1cccc(Br)c1)[C@@H]1CC[C@H]1O", "note": "[Example 2.1.10R, (2R,3R,4S,5R,6R)-N-(3-bromophenyl)-5-hydroxy-N-((1R,2R)-2-hydroxycyclobutyl)-6-(hydroxymethyl)-3-methoxy-4-(4-(3,4,5-trifluorophenyl)-1H-1,2,3-triazol-1-yl)tetrahydro-2H-pyran-2-carboxamide]", "IC50": 203}
{"smiles": "CO[C@@H]1[C@@H](n2cc(-c3ccc(Cl)c(Cl)c3)nn2)[C@@H](O)[C@@H](CO)O[C@H]1C(=O)N(c1cc(Cl)cc(C#N)c1)[C@@H]1CCC[C@H]1O", "note": "[Example 1.8.4R, (2R,3R,4S,5R,6R)-N-(3-chloro-5-cyanophenyl)-4-(4-(3,4-dichlorophenyl)-1H-1,2,3-triazol-1-yl)-5-hydroxy-N-((1R,2R)-2-hydroxycyclopentyl)-6-(hydroxymethyl)-3-methoxytetrahydro-2H-pyran-2-carboxamide]", "IC50": 330}
{"smiles": "CC(=O)O[C@@H]1[C@@H](n2cc(-c3cc(F)c(Cl)c(F)c3)nn2)[C@@H](O)[C@@H](CO)O[C@H]1C(=O)N(c1cc(Cl)cc(C#N)c1)[C@H]1CCC[C@@H]1O", "note": "[Example 1A.5.4, (2R,3R,4S,5R,6R)-4-(4-(4-chloro-3,5-difluorophenyl)-1H-1,2,3-triazol-1-yl)-2-((3-chloro-5-cyanophenyl)((1S,2S)-2-hydroxycyclopentyl)carbamoyl)-5-hydroxy-6-(hydroxymethyl)tetrahydro-2H-pyran-3-yl acetate]", "IC50": 16.4}
{"smiles": "CO[C@@H]1[C@@H](n2cc(-c3cc(F)c(F)c(F)c3)nn2)[C@@H](O)[C@@H](CO)O[C@H]1C(=O)N(c1cc(Br)cc(Br)c1)[C@H]1CCC[C@@H]1O", "note": "[Example 1.1.11, (2R,3R,4S,5R,6R)-N-(3,5-dibromophenyl)-5-hydroxy-N-((1S,2S)-2-hydroxycyclopentyl)-6-(hydroxymethyl)-3-methoxy-4-(4-(3,4,5-trifluorophenyl)-1H-1,2,3-triazol-1-yl)tetrahydro-2H-pyran-2-carboxamide]", "IC50": 31}
{"smiles": "CO[C@@H]1[C@@H](n2cc(-c3cc(F)c(F)c(F)c3)nn2)[C@@H](O)[C@@H](CO)O[C@H]1C(=O)N(c1cccc(Br)c1)[C@H]1CCC[C@@H]1O", "note": "[Example 1.1.10, (2R,3R,4S,5R,6R)-N-(3-bromophenyl)-5-hydroxy-N-((1S,2S)-2-hydroxycyclopentyl)-6-(hydroxymethyl)-3-methoxy-4-(4-(3,4,5-trifluorophenyl)-1H-1,2,3-triazol-1-yl)tetrahydro-2H-pyran-2-carboxamide]", "IC50": 78.8}
{"smiles": "COc1cc(-c2cn([C@H]3[C@@H](O)[C@@H](CO)O[C@@H](C(=O)N(c4cc(C)cc(Br)c4)[C@H]4CCC[C@@H]4O)[C@@H]3OC)nn2)cc(F)c1F", "note": "[Example 1.3.12, (2R,3R,4S,5R,6R)-N-(3-bromo-5-methylphenyl)-4-(4-(3,4-difluoro-5-methoxyphenyl)-1H-1,2,3-triazol-1-yl)-5-hydroxy-N-((1S,2S)-2-hydroxycyclopentyl)-6-(hydroxymethyl)-3-methoxytetrahydro-2H-pyran-2-carboxamide]", "IC50": 42.1}
{"smiles": "CO[C@@H]1[C@@H](n2cc(-c3ccc(C)c(F)c3)nn2)[C@@H](O)[C@@H](CO)O[C@H]1C(=O)N(c1cc(Br)cc(C#N)c1)[C@H]1CCC[C@@H]1O", "note": "[Example 1.13.5, (2R,3R,4S,5R,6R)—N-(3-bromo-5-cyanophenyl)-4-(4-(3-fluoro-4-methylphenyl)-1H-1,2,3-triazol-1-yl)-5-hydroxy-N-((1S,2S)-2-hydroxycyclopentyl)-6-(hydroxymethyl)-3-methoxytetrahydro-2H-pyran-2-carboxamide]", "IC50": 17.1}
{"smiles": "CO[C@@H]1[C@@H](n2cc(-c3ccc(C)c(F)c3F)nn2)[C@@H](O)[C@@H](CO)O[C@H]1C(=O)N(c1cc(Br)cc(C#N)c1)[C@H]1CCC[C@@H]1O", "note": "[Example 1.11.5, (2R,3R,4S,5R,6R)-N-(3-bromo-5-cyanophenyl)-4-(4-(2,3-difluoro-4-methylphenyl)-1H-1,2,3-triazol-1-yl)-5-hydroxy-N-((1S,2S)-2-hydroxycyclopentyl)-6-(hydroxymethyl)-3-methoxytetrahydro-2H-pyran-2-carboxamide]", "IC50": 14.9}
{"smiles": "CO[C@@H]1[C@@H](n2cc(-c3ccc(Br)c(F)c3F)nn2)[C@@H](O)[C@@H](CO)O[C@H]1C(=O)N(c1cc(F)cc(C#N)c1)[C@@H]1CC[C@H]1O", "note": "[Example 2.12.7R, (2R,3R,4S,5R,6R)-4-(4-(4-bromo-2,3-difluorophenyl)-1H-1,2,3-triazol-1-yl)-N-(3-cyano-5-fluorophenyl)-5-hydroxy-N-((1R,2R)-2-hydroxycyclobutyl)-6-(hydroxymethyl)-3-methoxytetrahydro-2H-pyran-2-carboxamide]", "IC50": 107}
{"smiles": "CO[C@@H]1[C@@H](n2cc(-c3cc(F)cc(Br)c3)nn2)[C@@H](O)[C@@H](CO)O[C@H]1C(=O)N(c1cc(Br)cc(C#N)c1)[C@@H]1CCC[C@H]1O", "note": "[Example 1.10.5R, (2R,3R,4S,5R,6R)-N-(3-bromo-5-cyanophenyl)-4-(4-(3-bromo-5-fluorophenyl)-1H-1,2,3-triazol-1-yl)-5-hydroxy-N-((1R,2R)-2-hydroxycyclopentyl)-6-(hydroxymethyl)-3-methoxytetrahydro-2H-pyran-2-carboxamide]", "IC50": 508}
{"smiles": "CO[C@@H]1[C@@H](n2cc(-c3cc(F)c(C)c(F)c3)nn2)[C@@H](O)[C@@H](CO)O[C@H]1C(=O)N(c1cc(Cl)cc(Cl)c1)[C@H]1CCC[C@@H]1O", "note": "[Example 1.4.2, (2R,3R,4S,5R,6R)-N-(3,5-dichlorophenyl)-4-(4-(3,5-difluoro-4-methylphenyl)-1H-1,2,3-triazol-1-yl)-5-hydroxy-N-((1S,2S)-2-hydroxycyclopentyl)-6-(hydroxymethyl)-3-methoxytetrahydro-2H-pyran-2-carboxamide]", "IC50": 44.8}
{"smiles": "CO[C@@H]1[C@@H](n2cc(-c3cc(F)c(Cl)c(F)c3)nn2)[C@@H](O)[C@@H](CO)O[C@H]1C(=O)N(c1cc(Cl)cc(C#N)c1)[C@@H]1CC[C@H]1O", "note": "[Example 2.5.4R, (2R,3R,4S,5R,6R)-4-(4-(4-chloro-3,5-difluorophenyl)-1H-1,2,3-triazol-1-yl)-N-(3-chloro-5-cyanophenyl)-5-hydroxy-N-((1R,2R)-2-hydroxycyclobutyl)-6-(hydroxymethyl)-3-methoxytetrahydro-2H-pyran-2-carboxamide]", "IC50": 193}
{"smiles": "CO[C@@H]1[C@@H](n2cc(-c3cc(F)c(C)c(F)c3)nn2)[C@@H](O)[C@@H](CO)O[C@H]1C(=O)N(c1cc(Cl)cc(Cl)c1)[C@@H]1CC[C@H]1O", "note": "[Example 2.4.2R, (2R,3R,4S,5R,6R)-N-(3,5-dichlorophenyl)-4-(4-(3,5-difluoro-4-methylphenyl)-1H-1,2,3-triazol-1-yl)-5-hydroxy-N-((1R,2R)-2-hydroxycyclobutyl)-6-(hydroxymethyl)-3-methoxytetrahydro-2H-pyran-2-carboxamide]", "IC50": 134}
{"smiles": "COc1cc(C#N)cc(N(C(=O)[C@@H]2O[C@H](CO)[C@H](O)[C@H](n3cc(-c4ccc(C#N)c(F)c4)nn3)[C@H]2OC)[C@@H]2CCC[C@H]2O)c1", "note": "[Example 1.16.9R, (2R,3R,4S,5R,6R)-4-(4-(4-cyano-3-fluorophenyl)-1H-1,2,3-triazol-1-yl)-N-(3-cyano-5-methoxyphenyl)-5-hydroxy-N-((1R,2R)-2-hydroxycyclopentyl)-6-(hydroxymethyl)-3-methoxytetrahydro-2H-pyran-2-carboxamide]", "IC50": 1460}
{"smiles": "CO[C@@H]1[C@@H](n2cc(-c3cc(F)cc(F)c3)nn2)[C@@H](O)[C@@H](CO)O[C@H]1C(=O)N(c1cc(Br)cc(C#N)c1)[C@H]1CCC[C@@H]1O", "note": "[Example 1.2.5, (2R,3R,4S,5R,6R)-N-(3-bromo-5-cyanophenyl)-4-(4-(3,5-difluorophenyl)-1H-1,2,3-triazol-1-yl)-5-hydroxy-N-((1S,2S)-2-hydroxycyclopentyl)-6-(hydroxymethyl)-3-methoxytetrahydro-2H-pyran-2-carboxamide]", "IC50": 146}
{"smiles": "CO[C@@H]1[C@@H](n2cc(-c3ccc(C)c(F)c3F)nn2)[C@@H](O)[C@@H](CO)O[C@H]1C(=O)N(c1cc(Cl)cc(Cl)c1)[C@@H]1CC[C@H]1O", "note": "[Example 2.11.2R, (2R,3R,4S,5R,6R)-N-(3,5-dichlorophenyl)-4-(4-(2,3-difluoro-4-methylphenyl)-1H-1,2,3-triazol-1-yl)-5-hydroxy-N-((1R,2R)-2-hydroxycyclobutyl)-6-(hydroxymethyl)-3-methoxytetrahydro-2H-pyran-2-carboxamide]", "IC50": 74.8}
{"smiles": "CO[C@@H]1[C@@H](n2cc(-c3cc(F)c(Br)c(F)c3)nn2)[C@@H](O)[C@@H](CO)O[C@H]1C(=O)N(c1cc(F)cc(C#N)c1)[C@H]1CC[C@@H]1O", "note": "[Example 2.6.7, (2R,3R,4S,5R,6R)-4-(4-(4-bromo-3,5-difluorophenyl)-1H-1,2,3-triazol-1-yl)-N-(3-cyano-5-fluorophenyl)-5-hydroxy-N-((1S,2S)-2-hydroxycyclobutyl)-6-(hydroxymethyl)-3-methoxytetrahydro-2H-pyran-2-carboxamide]", "IC50": 183}
{"smiles": "CO[C@@H]1[C@@H](n2cc(-c3cc(F)c(F)c(F)c3)nn2)[C@@H](O)[C@@H](CO)O[C@H]1C(=O)N(c1cccc(I)c1)[C@@H]1CC[C@H]1O", "note": "[Example 2.1.6R, (2R,3R,4S,5R,6R)-5-hydroxy-N-((1R,2R)-2-hydroxycyclobutyl)-6-(hydroxymethyl)-N-(3-iodophenyl)-3-methoxy-4-(4-(3,4,5-trifluorophenyl)-1H-1,2,3-triazol-1-yl)tetrahydro-2H-pyran-2-carboxamide]", "IC50": 232}
{"smiles": "COc1cc(-c2cn([C@H]3[C@@H](O)[C@@H](CO)O[C@@H](C(=O)N(c4cc(Br)cc(Br)c4)[C@H]4CC[C@@H]4O)[C@@H]3OC)nn2)cc(F)c1F", "note": "[Example 2.3.11, (2R,3R,4S,5R,6R)-N-(3,5-dibromophenyl)-4-(4-(3,4-difluoro-5-methoxyphenyl)-1H-1,2,3-triazol-1-yl)-5-hydroxy-N-((1S,2S)-2-hydroxycyclobutyl)-6-(hydroxymethyl)-3-methoxytetrahydro-2H-pyran-2-carboxamide]", "IC50": 113}
